Assay results from the NIST ThermoML archive (doi:10.1016/j.jct.2017.11.012).

Details: for mass density: 101.33 kPa, Liquid, Buoyancy - hydrostatic balance with magnetic suspension - one sinker

CCCCCCn1cc[n+](C)c1.[Br-] [3-hexyl-1-methyl-1H-imidazolium bromide]
surface tension liquid-gas [mN/m]
Details	Ring tensiometer	Wilhelmy Plate
288.65 K	40.83	–
293.93 K	40.58	–
298.48 K	40.31	–
303.39 K	40.14	–
303.45 K	–	39.75
308.08 K	39.96	–
308.14 K	–	39.56
313.4 K	39.68	–
313.41 K	–	39.34
318.16 K	39.45	39.12
323.29 K	–	38.8
323.34 K	39.07	–
328.24 K	–	38.58
328.26 K	38.83	–
333.84 K	38.51	–
333.86 K	–	38.26
338.01 K	38.31	–
338.05 K	–	38.08
343.05 K	38.09	–
343.07 K	–	37.86
348.61 K	37.8	–
348.66 K	–	37.51
352.53 K	37.43	–
352.73 K	–	37.37
358.19 K	37.28	–
358.21 K	–	37.02
360.12 K	37.19	–
360.23 K	–	36.96

Details	mass density [kg/m3]
288.7 K	1235.51
293.91 K	1231.69
298.52 K	1228.13
303.43 K	1224.72
308.13 K	1220.87
313.41 K	1216.98
318.19 K	1213.32
323.33 K	1209.5
328.2 K	1205.7
333.8 K	1201.57
338.04 K	1198.15
343.07 K	1195.21
348.64 K	1191.41
352.79 K	1188.62
358.28 K	1185.22
360.63 K	1183.34
